Results as given in ChEMBL document CHEMBL1909571, “Design, synthesis, and biological activity of a novel series of 2,5-disubstituted furans/pyrroles as HIV-1 fusion inhibitors targeting gp41” (Bioorg Med Chem Lett, 2011).

Assays:
[1] = tested on: Human immunodeficiency virus; assay: Antiviral activity against HIV 3B infected in MT2 cells assessed as inhibition of viral replication measuring p24 level by ELISA; format: functional, organism-based; conditions: Human immunodeficiency virus 1, 3B
[2] = Inhibition of HIV1 3B gp41-mediated fusion of infected human H9 cells to uninfected human MT2 cells by fluorescence assay; format: cell-based; conditions: Human immunodeficiency virus 1, 3B
[3] = Cytotoxicity against human MT2 cells by XTT assay; format: cell-based
[4] = Inhibition of GP41 six-helix bundle formation in HIV 3B after 30 mins by FN-PAGE analysis; set-up: species or system Human immunodeficiency virus 1
[5] = Selectivity index, ratio of CC50 for human MT2 cells to EC50 for HIV 3B infected in MT2 cells; format: toxicity, cell-based; conditions: read-out: Ratio CC50/EC50

For `O=C(O)c1cccc(-c2ccc(/C=C3\NC(=O)N(CCc4ccccc4)C3=O)[nH]2)c1`, the EC50 [1] was > 100 µM, the EC50 [2] was 35.9 µM and the CC50 [3] was 75.2 µM. The EC50 [4] was 3.05 µM.
With `O=C(O)c1cc(-c2ccc(/C=C3\NC(=O)N(CCc4ccccc4)C3=O)o2)ccc1Cl` the EC50 [1] was 54.2 µM, the EC50 [2] was > 100 µM and the CC50 [3] was 78.5 µM. The selectivity ratio [5] was 1.5 and the EC50 [4] was 19 µM.
`O=C(O)c1cc(-c2ccc(/C=C3\SC(=O)N(CCc4ccccc4)C3=O)o2)ccc1Cl` showed an EC50 [1] of 15.1 µM, an EC50 [2] of 26.9 µM and a CC50 [3] of 68.2 µM. For the same molecule, the selectivity ratio [5] was 4.5 and the EC50 [4] was 29.7 µM.
With `O=C(O)c1cccc(-c2ccc(/C=C3\CC(=O)N(CCc4ccccc4)C3=O)[nH]2)c1` the EC50 [1] was > 100 µM, the EC50 [2] was > 100 µM and the CC50 [3] was 127 µM. For the same molecule, the EC50 [4] was > 100 µM.
With `O=C(O)c1cc(-c2ccc(/C=C3\CC(=O)N(CCc4ccccc4)C3=O)[nH]2)ccc1Cl` the EC50 [1] was > 100 µM, the EC50 [2] was > 100 µM and the CC50 [3] was 74.1 µM. It also gave an EC50 [4] of 5.5 µM.
`O=C(O)c1cc(-c2ccc(/C=C3\CC(=O)N(CCc4ccccc4)C3=O)o2)ccc1Cl` showed an EC50 [1] of 6.9 µM, an EC50 [2] of 43.6 µM and a CC50 [3] of 118 µM. It also gave a selectivity ratio [5] of 17.2 and an EC50 [4] of 15.6 µM.
`O=C(O)c1cc(-c2ccc(/C=C3\OC(=S)N(CCc4ccccc4)C3=O)o2)ccc1Cl` showed an EC50 [1] of 31 µM, an EC50 [2] of 49.6 µM and a CC50 [3] of 282 µM. For the same molecule, the selectivity ratio [5] was 9.1 and the EC50 [4] was 27.8 µM.
In the case of `O=C(O)c1cc(-c2ccc(/C=c3\sc4nc(=O)c(-c5ccccc5)nn4c3=O)o2)ccc1Cl`, the EC50 [1] is reported as 16.8 µM, the EC50 [2] is reported as 45.9 µM and the CC50 [3] is reported as > 320 µM. The selectivity ratio [5] was > 19.1 and the EC50 [4] was 12.9 µM.
For `O=C(O)c1cc(-c2ccc(/C=C3\SC(=S)N(CCc4ccccc4)C3=O)o2)ccc1Cl`, the EC50 [1] was 0.05 µM, the EC50 [2] was 0.75 µM and the CC50 [3] was 20.3 µM. The selectivity ratio [5] was 406 and the EC50 [4] was 1.27 µM.
